The source of these data is patent US20250230155A1 (Vanderbilt University, priority 2021, published 2025).

This assay concerns the target T1, human mAChR M4 (Homo sapiens, UniProt P08173).
T1 construct: expressed in transfected cells
T1 sequence (P08173 1-479): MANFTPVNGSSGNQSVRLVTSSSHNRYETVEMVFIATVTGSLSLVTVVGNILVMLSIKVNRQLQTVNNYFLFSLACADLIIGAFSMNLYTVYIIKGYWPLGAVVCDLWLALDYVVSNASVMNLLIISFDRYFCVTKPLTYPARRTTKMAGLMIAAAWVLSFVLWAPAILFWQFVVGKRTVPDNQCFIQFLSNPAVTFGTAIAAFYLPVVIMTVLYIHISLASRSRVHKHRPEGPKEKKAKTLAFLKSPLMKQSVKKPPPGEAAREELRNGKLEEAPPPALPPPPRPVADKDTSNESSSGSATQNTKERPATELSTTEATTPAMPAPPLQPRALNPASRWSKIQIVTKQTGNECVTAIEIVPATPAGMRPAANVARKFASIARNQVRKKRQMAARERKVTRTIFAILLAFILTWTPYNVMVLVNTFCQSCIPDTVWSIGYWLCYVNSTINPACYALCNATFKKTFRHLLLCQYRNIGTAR
Kind of assay: mAChR M4 cell-based functional assay (calcium mobilization, CHO-K1 hM4-Gqi5 cells). The conditions noted are these: for Emax at 30 µM: CHO-K1, % ACh maximum at 30 μM, human M4; for EC50: positive allosteric modulator activity, increase in the EC20 acetylcholine response, CHO-K1 hM4-Gqi5 cells, read-out: Human M4 EC50. A digest of the protocol: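 Fluorescent calcium read-out (Fluo-4 AM, FDSS, 1 Hz) in hM4-Gqi5 CHO-K1 cells, 11-point 1:3 compound series. Agonism scored on compound addition, PAM activity as increase of the 144 s EC20 acetylcholine response, antagonism as decrease of the 230 s EC80 response; four-parameter logistic fits give EC50 and Emax.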

With `Cc1cc(C(=O)N2CC(N(C)C)C2)nnc1N1CCc2ncc(N3CCCn4nccc43)cc2C1` [Example 518, (6-(3-(6,7-dihydropyrazolo[1,5-a]pyrimidin-4(5H)-yl)-7,8-dihydro-1,6-naphthyridin-6(5H)-yl)-5-methylpyridazin-3-yl)(3-(dimethylamino)azetidin-1-yl)methanone], the Emax at 30 µM was determined as 102% and the EC50 stood at 32 nM.

Regarding `Cc1nc(C)c(C)c(N2CCc3ncc(-c4ccc(N5CCN(C)CC5)nc4)cc3C2)n1` [compound 233, 3-(6-(4-methylpiperazin-1-yl)pyridin-3-yl)-6-(2,5,6-trimethylpyrimidin-4-yl)-5,6,7,8-tetrahydro-1,6-naphthyridine], the Emax at 30 µM amounted to 80% and the EC50 was determined as 366 nM.

With `Cc1c(C#N)nnc(N2CCc3ncc(Nc4ccccc4OC(F)(F)F)cc3C2)c1C` [compound 44, 4,5-dimethyl-6-[3-[2-(trifluoromethoxy)anilino]-7,8-dihydro-5H-1,6-naphthyridin-6-yl]pyridazine-3-carbonitrile], the Emax at 30 µM is 40% and the EC50 is 1880 nM.

Regarding `Cc1c(C#N)nnc(N2CCc3ncc(Nc4ccccc4C#N)cc3C2)c1C` [compound 41, 6-[3-(2-cyanoanilino)-7,8-dihydro-5H-1,6-naphthyridin-6-yl]-4,5-dimethyl-pyridazine-3-carbonitrile], the Emax at 30 µM was 46% and the EC50 was found to be 483 nM.

Take `Cc1cc(C#N)cnc1N1CCc2ncc(-c3cncs3)cc2C1` [compound 95, 5-methyl-6-(3-thiazol-5-yl-7,8-dihydro-5H-1,6-naphthyridin-6-yl)pyridine-3-carbonitrile]: the Emax at 30 µM is 98% and the EC50 amounted to 84.1 nM.

For the compound `FC(F)(F)c1cnc2c(c1)CN(c1nc(C3CC3)nc3c1CCCC3)CC2` [compound 266, 2-cyclopropyl-4-(3-(trifluoromethyl)-7,8-dihydro-1,6-naphthyridin-6(5H)-yl)-5,6,7,8-tetrahydroquinazoline], the Emax at 30 µM stood at 38% and the EC50 worked out at 4570 nM.

On to `Cc1cc(C(=O)NCc2ccncc2)cnc1N1CCc2ncc(C(F)(F)F)cc2C1` [Example 444, 5-methyl-N-(pyridin-4-ylmethyl)-6-(3-(trifluoromethyl)-7,8-dihydro-1,6-naphthyridin-6(5H)-yl)nicotinamide], for which the Emax at 30 µM worked out at 100% and the concentration for a half-maximal effect (EC50) was found to be 196 nM.

Take `Cc1c(C#N)nnc(N2CCc3ncc(Oc4ccc(F)cc4)cc3C2)c1C` [Example 300, 6-(3-(4-fluorophenoxy)-7,8-dihydro-1,6-naphthyridin-6(5H)-yl)-4,5-dimethylpyridazine-3-carbonitrile]: the Emax at 30 µM was determined as 71% and the EC50 turned out to be 246 nM.

Turning to `Cc1nc(C)c(C)c(N2CCc3ncc(Nc4ccnn4C)cc3C2)n1` [compound 241, N-(1-methyl-1H-pyrazol-5-yl)-6-(2,5,6-trimethylpyrimidin-4-yl)-5,6,7,8-tetrahydro-1,6-naphthyridin-3-amine], the Emax at 30 µM is 81% and the EC50 came out at 111 nM.

For the compound `Cc1nc(C)c(C)c(N2CCc3ncc(-c4ccc(N5CCC(F)(F)C5)nc4)cc3C2)n1` [compound 228, 3-(6-(3,3-difluoropyrrolidin-1-yl)pyridin-3-yl)-6-(2,5,6-trimethylpyrimidin-4-yl)-5,6,7,8-tetrahydro-1,6-naphthyridine], the Emax at 30 µM is 66% and the EC50 was determined as 890 nM.

Turning to `Cc1nc(Cl)c(C)c(N2Cc3cc(N4CCCn5nccc54)cnc3C(C)(C)C2)n1` [compound 250, 6-(6-chloro-2,5-dimethylpyrimidin-4-yl)-3-(6,7-dihydropyrazolo[1,5-a]pyrimidin-4(5H)-yl)-8,8-dimethyl-5,6,7,8-tetrahydro-1,6-naphthyridine], the Emax at 30 µM was determined as 66% and the EC50 turned out to be 616 nM.

`Cc1cc(C(=O)N2CC(F)C2)nnc1N1CCc2ncc(-n3cccn3)cc2C1` [Example 568, (6-(3-(1H-pyrazol-1-yl)-7,8-dihydro-1,6-naphthyridin-6(5H)-yl)-5-methylpyridazin-3-yl)(3-fluoroazetidin-1-yl)methanone]: the Emax at 30 µM worked out at 75% and the EC50 is 161 nM.

In the case of `Cc1cc(C(=O)N2CCCn3nccc32)nnc1N1CCc2ncc(C(F)(F)F)cc2C1` [Example 503, (6,7-dihydropyrazolo[1,5-a]pyrimidin-4(5H)-yl)(5-methyl-6-(3-(trifluoromethyl)-7,8-dihydro-1,6-naphthyridin-6(5H)-yl)pyridazin-3-yl)methanone], the Emax at 30 µM was determined as 103% and the EC50 is 4080 nM.

Regarding `Cc1c(C#N)nnc(N2CCc3ncc(Nc4cc(Cl)cnc4F)cc3C2)c1C` [compound 82, 6-[3-[(5-chloro-2-fluoro-3-pyridyl)amino]-7,8-dihydro-5H-1,6-naphthyridin-6-yl]-4,5-dimethyl-pyridazine-3-carbonitrile], the Emax at 30 µM came out at 82% and the concentration for a half-maximal effect (EC50) was 157 nM.

Consider `Cc1nc(Cl)c(C)c(N2CCc3ncc(Nc4cccc(F)c4F)cc3C2)n1` [compound 86, 6-(6-chloro-2,5-dimethyl-pyrimidin-4-yl)-N-(2,3-difluorophenyl)-7,8-dihydro-5H-1,6-naphthyridin-3-amine], for which the Emax at 30 µM amounted to 84% and the concentration giving a half-maximal response (EC50) amounted to 654 nM.

In the case of `Clc1nc2c(c(N3CCc4ncc(N5CCOc6ncccc65)cc4C3)n1)COC2` [compound 283, 1-(6-(2-chloro-5,7-dihydrofuro[3,4-d]pyrimidin-4-yl)-5,6,7,8-tetrahydro-1,6-naphthyridin-3-yl)-2,3-dihydro-1H-pyrido[2,3-b][1,4]oxazine], the EC50 was determined as 368 nM.

As for `Cc1cnccc1CNC(=O)c1cc(C)c(N2CCc3ncc(N4CCCn5nccc54)cc3C2)nn1` [Example 491, 6-(3-(6,7-dihydropyrazolo[1,5-a]pyrimidin-4(5H)-yl)-7,8-dihydro-1,6-naphthyridin-6(5H)-yl)-5-methyl-N-((3-methylpyridin-4-yl)methyl)pyridazine-3-carboxamide], the Emax at 30 µM came out at 91% and the EC50 worked out at 15 nM.

Turning to `Cc1cc(C#N)cnc1N1CCc2ncc(Oc3ccccc3F)cc2C1` [compound 180, 6-[3-(2-fluorophenoxy)-7,8-dihydro-5H-1,6-naphthyridin-6-yl]-5-methyl-pyridine-3-carbonitrile], the Emax at 30 µM stood at 94% and the EC50 was determined as 96.9 nM.

On to `Cc1cc(C#N)cnc1N1CCc2ncc(Nc3cc(F)ccc3F)cc2C1` [compound 110, 6-[3-(2,5-difluoroanilino)-7,8-dihydro-5H-1,6-naphthyridin-6-yl]-5-methyl-pyridine-3-carbonitrile], for which the Emax at 30 µM is 95% and the EC50 is 167 nM.

Take `Cc1nc(Cl)c(C)c(N2CCc3ncc(Oc4cccc(F)c4)cc3C2)n1` [compound 203, 6-(6-chloro-2,5-dimethyl-pyrimidin-4-yl)-3-(3-fluorophenoxy)-7,8-dihydro-5H-1,6-naphthyridine]: the Emax at 30 µM is 86% and the EC50 turned out to be 647 nM.

`Cc1ccc(Oc2cnc3c(c2)CN(c2nnc(C#N)c(C)c2C)CC3)c(F)c1` [Example 358, 6-(3-(2-fluoro-4-methylphenoxy)-7,8-dihydro-1,6-naphthyridin-6(5H)-yl)-4,5-dimethylpyridazine-3-carbonitrile]: the Emax at 30 µM came to 82% and the EC50 came out at 320 nM.

For the compound `Cc1cc(C#N)nnc1N1CCc2ncc(Oc3ccc(F)cc3F)cc2C1` [Example 355, 6-(3-(2,4-difluorophenoxy)-7,8-dihydro-1,6-naphthyridin-6(5H)-yl)-5-methylpyridazine-3-carbonitrile], the Emax at 30 µM was 81% and the EC50 was 297 nM.

On to `Cc1c(C#N)nnc(N2CCc3ncc(-c4ccns4)cc3C2)c1C` [compound 292, 6-(3-(isothiazol-5-yl)-7,8-dihydro-1,6-naphthyridin-6(5H)-yl)-4,5-dimethylpyridazine-3-carbonitrile], for which the Emax at 30 µM worked out at 86% and the EC50 is 163 nM.

On to `Cc1c(C#N)nnc(N2CCc3ncc(Nc4ccc(Cl)cc4F)cc3C2)c1C` [compound 46, 6-[3-(4-chloro-2-fluoro-anilino)-7,8-dihydro-5H-1,6-naphthyridin-6-yl]-4,5-dimethyl-pyridazine-3-carbonitrile], for which the Emax at 30 µM was 34% and the EC50 worked out at 970 nM.

With `Cc1cc(C#N)nnc1N1CCc2ncc(Oc3cc(F)ccc3F)cc2C1` [Example 357, 6-(3-(2,5-difluorophenoxy)-7,8-dihydro-1,6-naphthyridin-6(5H)-yl)-5-methylpyridazine-3-carbonitrile], the Emax at 30 µM was found to be 84% and the EC50 came out at 127 nM.

Turning to `Cc1cnc2c(c1)CN(c1nnc(C(=O)NCc3cncs3)c(C)c1C)CC2` [Example 468, 4,5-dimethyl-6-(3-methyl-7,8-dihydro-1,6-naphthyridin-6(5H)-yl)-N-(thiazol-5-ylmethyl)pyridazine-3-carboxamide], the Emax at 30 µM was 108% and the EC50 turned out to be 119 nM.
